system: not listed separately; assay: Genotoxicity in Escherichia coli PQ37 expressing lacZ gene assessed as ratio of inducible beta-galactosidase activity to alkaline phosphatase activity at 30 mM after 2 hrs by SOS-chromotest relative to control; assay type: toxicity; details: Escherichia coli PQ37 cells expressing lacZ gene, read-out: FC

Compound | fold induction at 2 h, 30000 µM
Cc1c(C)c2c(c(C)c1OC(=O)CCC(=O)O)CCC(C)(C(=O)NC1CC(C)(C)N([O])C(C)(C)C1)O2 (stereo not given) | 1.1

system: Salmonella typhimurium; assay: Genotoxicity in Salmonella typhimurium TA102 harboring […] mutant assessed as frequency of reversion from histidine auxotrophy to prototrophy at 30 mM after 48 hrs by Ames test (reference value: 209 +/- 10 No _unit); assay type: toxicity, organism-based; details: salmonella enterica subsp. enterica serovar typhimurium, 30000 µM

Compound | Activity
Cc1c(C)c2c(c(C)c1OC(=O)CCC(=O)O)CCC(C)(C(=O)NC1CC(C)(C)N([O])C(C)(C)C1)O2 (stereo not given) | 216

system: Salmonella enterica subsp. enterica serovar Typhimurium; assay: Antioxidant activity in Salmonella typhimurium TA102 harboring […] mutant assessed as inhibition of t-BuO2H-dependant mutant formation at 0.3 uM preincubated with compound followed by t-BuO2H addition after 48 hrs by Ames test; assay type: functional; details: not given

Compound | inhibition [%]
Cc1c(C)c2c(c(C)c1OC(=O)CCC(=O)O)CCC(C)(C(=O)NC1CC(C)(C)N([O])C(C)(C)C1)O2 (stereo not given) | 10

system: Salmonella enterica subsp. enterica serovar Typhimurium; assay: Antioxidant activity in Salmonella typhimurium TA102 harboring […] mutant assessed as inhibition of t-BuO2H-dependant mutant formation at 3 uM preincubated with compound followed by t-BuO2H addition after 48 hrs by Ames test; assay type: functional; details: not given

Compound | inhibition [%]
Cc1c(C)c2c(c(C)c1OC(=O)CCC(=O)O)CCC(C)(C(=O)NC1CC(C)(C)N([O])C(C)(C)C1)O2 (stereo not given) | 18

system: Salmonella enterica subsp. enterica serovar Typhimurium; assay: Antioxidant activity in Salmonella typhimurium TA102 harboring […] mutant assessed as inhibition of t-BuO2H-dependant mutant formation at 30 uM preincubated with compound followed by t-BuO2H addition after 48 hrs by Ames test; assay type: functional; details: not given

Compound | inhibition [%]
Cc1c(C)c2c(c(C)c1OC(=O)CCC(=O)O)CCC(C)(C(=O)NC1CC(C)(C)N([O])C(C)(C)C1)O2 (stereo not given) | 19

system: not listed separately; assay: Cytotoxicity against human MCF7 cells assessed as reduction in cell viability after 72 hrs by MTT assay; assay type: functional, cell-based; details: MCF7, 72 h

Compound | IC50 [µM]
Cc1c(C)c2c(c(C)c1OC(=O)CCC(=O)O)CCC(C)(C(=O)NC1CC(C)(C)N([O])C(C)(C)C1)O2 (stereo not given) | > 300

system: not listed separately; assay: Cytotoxicity against human RPMI8226 cells assessed as reduction in cell viability after 72 hrs by MTT assay; assay type: functional, cell-based; details: RPMI-8226, 72 h

Compound | IC50 [µM]
Cc1c(C)c2c(c(C)c1OC(=O)CCC(=O)O)CCC(C)(C(=O)NC1CC(C)(C)N([O])C(C)(C)C1)O2 (stereo not given) | > 300

system: not listed separately; assay: Cytotoxicity against human HepG2 cells assessed as reduction in cell viability after 72 hrs by MTT assay; assay type: functional, cell-based; details: HepG2, 72 h

Compound | IC50 [µM]
Cc1c(C)c2c(c(C)c1OC(=O)CCC(=O)O)CCC(C)(C(=O)NC1CC(C)(C)N([O])C(C)(C)C1)O2 (stereo not given) | > 300

system: not listed separately; assay: Cytotoxicity against human CEM13 cells assessed as reduction in cell viability after 72 hrs by MTT assay; assay type: functional, cell-based; details: CEM13, 72 h

Compound | IC50 [µM]
Cc1c(C)c2c(c(C)c1OC(=O)CCC(=O)O)CCC(C)(C(=O)NC1CC(C)(C)N([O])C(C)(C)C1)O2 (stereo not given) | > 300

system: not listed separately; assay: Cytotoxicity against human U937 cells assessed as reduction in cell viability after 72 hrs by MTT assay; assay type: functional, cell-based; details: U-937, 72 h

Compound | IC50 [µM]
Cc1c(C)c2c(c(C)c1OC(=O)CCC(=O)O)CCC(C)(C(=O)NC1CC(C)(C)N([O])C(C)(C)C1)O2 (stereo not given) | 123

system: not listed separately; assay: Cytotoxicity against human MT4 cells assessed as reduction in cell viability after 72 hrs by MTT assay; assay type: functional, cell-based; details: MT4, 72 h

Compound | IC50 [µM]
Cc1c(C)c2c(c(C)c1OC(=O)CCC(=O)O)CCC(C)(C(=O)NC1CC(C)(C)N([O])C(C)(C)C1)O2 (stereo not given) | 165

system: not listed separately; assay: Cytotoxicity against mouse LMTK cells assessed as reduction in cell viability after 72 hrs by MTT assay; assay type: toxicity; details: not given

Compound | IC50 at 72 h [µM]
Cc1c(C)c2c(c(C)c1OC(=O)CCC(=O)O)CCC(C)(C(=O)NC1CC(C)(C)N([O])C(C)(C)C1)O2 (stereo not given) | > 300

system: not listed separately; assay: Cytotoxicity against hamster AG17-1 cells assessed as reduction in cell viability after 72 hrs by MTT assay; assay type: toxicity, cell-based, Cricetulus griseus; details: Chinese hamster

Compound | IC50 at 72 h [µM]
Cc1c(C)c2c(c(C)c1OC(=O)CCC(=O)O)CCC(C)(C(=O)NC1CC(C)(C)N([O])C(C)(C)C1)O2 (stereo not given) | > 300

system: not listed separately; assay: Cytotoxicity against human MCF7 cells assessed as reduction in cell viability at 300 uM after 72 hrs by MTT assay; assay type: functional; details: MCF7, 72 h

Compound | inhibition at 300 µM [%]
Cc1c(C)c2c(c(C)c1OC(=O)CCC(=O)O)CCC(C)(C(=O)NC1CC(C)(C)N([O])C(C)(C)C1)O2 (stereo not given) | 15

system: not listed separately; assay: Cytotoxicity against human RPMI8226 cells assessed as reduction in cell viability at 300 uM after 72 hrs by MTT assay; assay type: functional; details: RPMI-8226, 72 h

Compound | inhibition at 300 µM [%]
Cc1c(C)c2c(c(C)c1OC(=O)CCC(=O)O)CCC(C)(C(=O)NC1CC(C)(C)N([O])C(C)(C)C1)O2 (stereo not given) | 14

system: not listed separately; assay: Cytotoxicity against human HepG2 cells assessed as reduction in cell viability at 300 uM after 72 hrs by MTT assay; assay type: functional; details: HepG2, 72 h

Compound | inhibition at 300 µM [%]
Cc1c(C)c2c(c(C)c1OC(=O)CCC(=O)O)CCC(C)(C(=O)NC1CC(C)(C)N([O])C(C)(C)C1)O2 (stereo not given) | 44

system: not listed separately; assay: Cytotoxicity against human CEM13 cells assessed as reduction in cell viability at 300 uM after 72 hrs by MTT assay; assay type: functional; details: CEM13, 72 h

Compound | inhibition at 300 µM [%]
Cc1c(C)c2c(c(C)c1OC(=O)CCC(=O)O)CCC(C)(C(=O)NC1CC(C)(C)N([O])C(C)(C)C1)O2 (stereo not given) | 30

system: not listed separately; assay: Cytotoxicity against mouse LMTK cells assessed as reduction in cell viability at 300 uM after 72 hrs by MTT assay; assay type: toxicity; details: read-out: INH

Compound | cytotoxicity at 72 h, 300 µM [%]
Cc1c(C)c2c(c(C)c1OC(=O)CCC(=O)O)CCC(C)(C(=O)NC1CC(C)(C)N([O])C(C)(C)C1)O2 (stereo not given) | 0

system: not listed separately; assay: Cytotoxicity against hamster AG17-1 cells assessed as reduction in cell viability at 300 uM after 72 hrs by MTT assay; assay type: toxicity, cell-based, Cricetulus griseus; details: Chinese hamster, read-out: INH

Compound | cytotoxicity at 72 h, 300 µM [%]
Cc1c(C)c2c(c(C)c1OC(=O)CCC(=O)O)CCC(C)(C(=O)NC1CC(C)(C)N([O])C(C)(C)C1)O2 (stereo not given) | 36

system: not listed separately; assay: Ratio of IC50 for human MCF7 cells to concentration causing antioxidant activity in Salmonella typhimurium TA102 harboring […] mutant; assay type: functional; details: not given

Compound | Ratio
Cc1c(C)c2c(c(C)c1OC(=O)CCC(=O)O)CCC(C)(C(=O)NC1CC(C)(C)N([O])C(C)(C)C1)O2 (stereo not given) | 100 - 1000

system: not listed separately; assay: Ratio of IC50 for human RPMI8226 cells to concentration causing antioxidant activity in Salmonella typhimurium TA102 harboring […] mutant; assay type: functional, RPMI-8226; details: not given

Compound | Ratio
Cc1c(C)c2c(c(C)c1OC(=O)CCC(=O)O)CCC(C)(C(=O)NC1CC(C)(C)N([O])C(C)(C)C1)O2 (stereo not given) | 100 - 1000

system: not listed separately; assay: Ratio of IC50 for human HEPG2 cells to concentration causing antioxidant activity in Salmonella typhimurium TA102 harboring […] mutant; assay type: functional; details: not given

Compound | Ratio
Cc1c(C)c2c(c(C)c1OC(=O)CCC(=O)O)CCC(C)(C(=O)NC1CC(C)(C)N([O])C(C)(C)C1)O2 (stereo not given) | 100 - 1000

system: not listed separately; assay: Ratio of IC50 for human CEM13 cells to concentration causing antioxidant activity in Salmonella typhimurium TA102 harboring […] mutant; assay type: functional; details: not given

Compound | Ratio
Cc1c(C)c2c(c(C)c1OC(=O)CCC(=O)O)CCC(C)(C(=O)NC1CC(C)(C)N([O])C(C)(C)C1)O2 (stereo not given) | 100 - 1000

system: not listed separately; assay: Ratio of IC50 for human MT4 cells to concentration causing antioxidant activity in Salmonella typhimurium TA102 harboring […] mutant; assay type: functional; details: not given

Compound | Ratio
Cc1c(C)c2c(c(C)c1OC(=O)CCC(=O)O)CCC(C)(C(=O)NC1CC(C)(C)N([O])C(C)(C)C1)O2 (stereo not given) | 100 - 1000

system: not listed separately; assay: Ratio of IC50 for human U937 cells to concentration causing antioxidant activity in Salmonella typhimurium TA102 harboring […] mutant; assay type: functional, U-937; details: not given

Compound | Ratio
Cc1c(C)c2c(c(C)c1OC(=O)CCC(=O)O)CCC(C)(C(=O)NC1CC(C)(C)N([O])C(C)(C)C1)O2 (stereo not given) | 100 - 1000
